Measurements reported in publication PMC4558462, “A new small molecule inhibitor of soluble guanylate cyclase” (Bioorganic & Medicinal Chemistry, 2015).
Read-outs that look alike come from different tables or passages of the source.

What was measured:
sGCcat = molecular target: T1, sGCcat (Homo sapiens, UniProt Q02108+Q02153); assay: SPR binding to catalytic domain of sGC
T1 construct: a smaller construct of the catalytic domain (sGCcat)
T1 sequence (Q02108 481-608 limits assumed): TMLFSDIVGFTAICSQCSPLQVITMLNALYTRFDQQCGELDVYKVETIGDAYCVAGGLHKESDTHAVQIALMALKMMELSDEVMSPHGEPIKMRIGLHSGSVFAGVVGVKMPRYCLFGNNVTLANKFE
T1 sequence (Q02153 421-554 limits assumed): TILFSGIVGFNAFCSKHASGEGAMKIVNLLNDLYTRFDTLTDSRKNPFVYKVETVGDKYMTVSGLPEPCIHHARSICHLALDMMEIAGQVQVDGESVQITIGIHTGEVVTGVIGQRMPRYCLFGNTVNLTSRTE
Description: We have previously described a surface plasmon resonance-based assay for the detection of binding of small molecules to full-length sGC and a smaller construct of the catalytic domain (sGCcat).[24] This assay was used to measure the binding of the compounds to sGCcat.[24] […] The position of the hydroxyl group can be changed whilst retaining binding strength and activity.
(§1) Surface plasmon resonance (SPR) experiments were performed with a Biacore T200 instrument at 25 °C. Data processing and analysis were performed using BIAevaluation software and Scrubber2. All sensorgrams were double referenced by subtracting the response in a reference flowcell and a blank sample. Materials and methods used were the same as previously published.[24]

full-length enzyme (sGC) = molecular target: T2, full-length enzyme (sGC) (Homo sapiens, UniProt Q02108+Q02153); assay: SPR binding to full-length sGC
T2 construct: Full-length human recombinant guanylyl cyclase (soluble); purchased Enzo lifesciences ALX-201-177
T2 sequence (Q02108 1-690): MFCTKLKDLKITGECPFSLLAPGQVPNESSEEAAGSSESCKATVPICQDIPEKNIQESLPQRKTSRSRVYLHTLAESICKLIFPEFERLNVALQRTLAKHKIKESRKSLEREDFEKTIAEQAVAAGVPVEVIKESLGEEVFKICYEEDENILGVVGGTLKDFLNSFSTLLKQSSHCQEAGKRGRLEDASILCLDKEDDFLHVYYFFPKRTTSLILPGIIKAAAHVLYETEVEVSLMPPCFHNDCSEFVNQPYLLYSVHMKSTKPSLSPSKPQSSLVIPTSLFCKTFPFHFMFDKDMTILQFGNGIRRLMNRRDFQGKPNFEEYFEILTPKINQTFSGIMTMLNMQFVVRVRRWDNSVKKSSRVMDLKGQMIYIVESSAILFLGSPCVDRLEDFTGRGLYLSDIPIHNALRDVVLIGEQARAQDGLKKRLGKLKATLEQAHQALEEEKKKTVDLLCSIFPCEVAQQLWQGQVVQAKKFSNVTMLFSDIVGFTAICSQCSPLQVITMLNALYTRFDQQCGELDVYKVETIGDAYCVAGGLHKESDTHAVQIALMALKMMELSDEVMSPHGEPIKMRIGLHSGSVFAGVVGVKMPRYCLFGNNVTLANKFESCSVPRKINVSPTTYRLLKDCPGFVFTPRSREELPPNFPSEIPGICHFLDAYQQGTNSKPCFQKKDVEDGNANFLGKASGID
T2 sequence (Q02153 1-619): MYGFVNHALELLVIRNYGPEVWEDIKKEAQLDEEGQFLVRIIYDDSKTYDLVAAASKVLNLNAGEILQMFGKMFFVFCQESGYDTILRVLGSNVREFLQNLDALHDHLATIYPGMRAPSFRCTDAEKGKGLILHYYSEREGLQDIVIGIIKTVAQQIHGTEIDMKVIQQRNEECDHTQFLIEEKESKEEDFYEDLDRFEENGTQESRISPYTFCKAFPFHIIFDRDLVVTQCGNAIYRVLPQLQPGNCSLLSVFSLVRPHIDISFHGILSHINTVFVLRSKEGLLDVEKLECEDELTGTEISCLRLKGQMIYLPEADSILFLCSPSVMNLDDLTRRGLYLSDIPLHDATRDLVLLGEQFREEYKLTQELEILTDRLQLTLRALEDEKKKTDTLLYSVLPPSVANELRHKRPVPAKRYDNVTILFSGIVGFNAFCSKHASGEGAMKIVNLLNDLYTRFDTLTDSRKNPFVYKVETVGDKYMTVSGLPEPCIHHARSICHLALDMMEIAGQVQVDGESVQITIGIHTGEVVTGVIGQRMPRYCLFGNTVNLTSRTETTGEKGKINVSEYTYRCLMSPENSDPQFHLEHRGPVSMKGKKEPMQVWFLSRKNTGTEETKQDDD
Description: Full-length human recombinant guanylyl cyclase (soluble) and bovine lung guanylyl cyclase (soluble) were obtained from Enzo lifesciences (catalogue numbers ALX-201-177 and ALX-202-039-C005). Biacore consumables were purchased from GE Healthcare (UK), including buffer stock solutions. All other reagents used were obtained from Sigma. Starting materials were either commercially available or synthesized according to methods reported in the literature. ^1H and ^13C NMR spectra were recorded on a Bruker AMX-300 or a Bruker AMX-500 spectrometer. Chemical shifts are reported as ppm relative to TMS internal standard. Mass spectra were recorded on a Fisons VG70-SE spectrometer (EI, FAB) or an Agilent 6100 Series LC-mass spectrometer using C-18 or C-4 columns. Microwave reactions were carried out using a CEM Discover microwave.
as §1

adenylyl cyclase = assay: Adenylyl cyclase activity (data not shown); type: biochemical
From the text: The sGC heterodimer is composed of a α-subunit and a shorter β-subunit which presents in the N-terminal the prosthetic haem group bound to histidine-105.[27] Each subunit is composed of a haem-nitric oxide binding domain, a PAS-like domain, a coiled-coil bundle, and the C-terminal catalytic domain where turnover of GTP into cGMP occurs.[28] […] The two sites are different, and small molecules can bind to one or to both sites, thus showing a 1:1 or 1:2 binding ratio. We have previously shown by surface plasmon resonance (SPR) that ATP binds to both sites and may inhibit sGC activity via competition with GTP, highlighting the potential for allosteric regulation of the enzyme.[24] GC domains are also present in the membrane-bound natriuretic peptide receptors type-A and type-B. There receptors, also referred to as particulate GCs (pGCs), are activated by binding of natriuretic peptides to the extracellular domain of the receptors, leading to an increase in GTP turnover at the intracellular GC domain.[32–34] In this study we observed by SPR that compound 10 bound to the catalytic domain of sGC in a 1:1 ratio. […] However, activity against kinases or phosphodiesterases was not investigated.

O=[N+]([O-])c1ccc2nc(Nc3ccc(O)cc3)c(Nc3ccc(O)cc3)nc2c1 [Compound 10, 4,4′-((6-Nitroquinoxaline-2,3-diyl)bis(azanediyl))diphenol]
Kd (sGCcat): 11.4 ± 1.8 µM | sGCcat (SPR) binding norm. resp. (RU) (sGCcat; Biacore T200, 25 °C): 14.4 ± 1.7 RU | binding to sGCcat (in words) (sGCcat; discussion of Table 1): higher binding | Kd (sGCcat; listed as D12): 11 µM | Kd (full-length enzyme (sGC)): 19.4 ± 2.1 µM | activity on adenylyl cyclase (adenylyl cyclase; basal): no activity | activity on adenylyl cyclase (adenylyl cyclase; forskolin-stimulated): no activity
